Experimental findings from patent publication US20120245137A1 (Zalicus Pharmaceuticals Ltd., priority 2009, published 2012) are described below.

What all share (assay type): cell-based
Experiment [1] addresses N-type calcium channel subunits (α1B, α2δ, and β3a) (Homo sapiens, UniProt Q00975). Description: Block of Cav2.2 channel, whole cell voltage clamp, manual and PatchXpress. The settings on record: Table 5; table follows Assay Example 3 (whole cell voltage clamp / PatchXpress); assay not given. The essentials: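 Percent block taken as current amplitude ratio with versus without compound, applied in rising doses; IC50 fitted where one cell received multiple doses. Protocol: 50 ms pulses to +20 mV at 0.067 Hz from […] or −90 mV holding; P/n leak subtraction, no junction-potential correction; manual and PatchXpress recordings.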

The target of experiment [2] is human α1H T-type channels (Homo sapiens, UniProt O95180). Nature of the experiment: T-type calcium channel block, whole cell patch clamp, α1H. Conditions: HEK cells stably expressing human α1H; mainly non-inactivated protocol; values above 10,000 nM represented as 10000. The essentials: (§1)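 Using standard patch-clamp, T-type currents were recorded from stably transfected human α1G or α1H HEK 293 cells. Separate non-inactivating and inactivation voltage protocols distinguished resting from voltage-dependent block by locally applied compound in 0.1-0.01% DMSO.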
Chain of human α1H T-type channels (O95180 whole entry): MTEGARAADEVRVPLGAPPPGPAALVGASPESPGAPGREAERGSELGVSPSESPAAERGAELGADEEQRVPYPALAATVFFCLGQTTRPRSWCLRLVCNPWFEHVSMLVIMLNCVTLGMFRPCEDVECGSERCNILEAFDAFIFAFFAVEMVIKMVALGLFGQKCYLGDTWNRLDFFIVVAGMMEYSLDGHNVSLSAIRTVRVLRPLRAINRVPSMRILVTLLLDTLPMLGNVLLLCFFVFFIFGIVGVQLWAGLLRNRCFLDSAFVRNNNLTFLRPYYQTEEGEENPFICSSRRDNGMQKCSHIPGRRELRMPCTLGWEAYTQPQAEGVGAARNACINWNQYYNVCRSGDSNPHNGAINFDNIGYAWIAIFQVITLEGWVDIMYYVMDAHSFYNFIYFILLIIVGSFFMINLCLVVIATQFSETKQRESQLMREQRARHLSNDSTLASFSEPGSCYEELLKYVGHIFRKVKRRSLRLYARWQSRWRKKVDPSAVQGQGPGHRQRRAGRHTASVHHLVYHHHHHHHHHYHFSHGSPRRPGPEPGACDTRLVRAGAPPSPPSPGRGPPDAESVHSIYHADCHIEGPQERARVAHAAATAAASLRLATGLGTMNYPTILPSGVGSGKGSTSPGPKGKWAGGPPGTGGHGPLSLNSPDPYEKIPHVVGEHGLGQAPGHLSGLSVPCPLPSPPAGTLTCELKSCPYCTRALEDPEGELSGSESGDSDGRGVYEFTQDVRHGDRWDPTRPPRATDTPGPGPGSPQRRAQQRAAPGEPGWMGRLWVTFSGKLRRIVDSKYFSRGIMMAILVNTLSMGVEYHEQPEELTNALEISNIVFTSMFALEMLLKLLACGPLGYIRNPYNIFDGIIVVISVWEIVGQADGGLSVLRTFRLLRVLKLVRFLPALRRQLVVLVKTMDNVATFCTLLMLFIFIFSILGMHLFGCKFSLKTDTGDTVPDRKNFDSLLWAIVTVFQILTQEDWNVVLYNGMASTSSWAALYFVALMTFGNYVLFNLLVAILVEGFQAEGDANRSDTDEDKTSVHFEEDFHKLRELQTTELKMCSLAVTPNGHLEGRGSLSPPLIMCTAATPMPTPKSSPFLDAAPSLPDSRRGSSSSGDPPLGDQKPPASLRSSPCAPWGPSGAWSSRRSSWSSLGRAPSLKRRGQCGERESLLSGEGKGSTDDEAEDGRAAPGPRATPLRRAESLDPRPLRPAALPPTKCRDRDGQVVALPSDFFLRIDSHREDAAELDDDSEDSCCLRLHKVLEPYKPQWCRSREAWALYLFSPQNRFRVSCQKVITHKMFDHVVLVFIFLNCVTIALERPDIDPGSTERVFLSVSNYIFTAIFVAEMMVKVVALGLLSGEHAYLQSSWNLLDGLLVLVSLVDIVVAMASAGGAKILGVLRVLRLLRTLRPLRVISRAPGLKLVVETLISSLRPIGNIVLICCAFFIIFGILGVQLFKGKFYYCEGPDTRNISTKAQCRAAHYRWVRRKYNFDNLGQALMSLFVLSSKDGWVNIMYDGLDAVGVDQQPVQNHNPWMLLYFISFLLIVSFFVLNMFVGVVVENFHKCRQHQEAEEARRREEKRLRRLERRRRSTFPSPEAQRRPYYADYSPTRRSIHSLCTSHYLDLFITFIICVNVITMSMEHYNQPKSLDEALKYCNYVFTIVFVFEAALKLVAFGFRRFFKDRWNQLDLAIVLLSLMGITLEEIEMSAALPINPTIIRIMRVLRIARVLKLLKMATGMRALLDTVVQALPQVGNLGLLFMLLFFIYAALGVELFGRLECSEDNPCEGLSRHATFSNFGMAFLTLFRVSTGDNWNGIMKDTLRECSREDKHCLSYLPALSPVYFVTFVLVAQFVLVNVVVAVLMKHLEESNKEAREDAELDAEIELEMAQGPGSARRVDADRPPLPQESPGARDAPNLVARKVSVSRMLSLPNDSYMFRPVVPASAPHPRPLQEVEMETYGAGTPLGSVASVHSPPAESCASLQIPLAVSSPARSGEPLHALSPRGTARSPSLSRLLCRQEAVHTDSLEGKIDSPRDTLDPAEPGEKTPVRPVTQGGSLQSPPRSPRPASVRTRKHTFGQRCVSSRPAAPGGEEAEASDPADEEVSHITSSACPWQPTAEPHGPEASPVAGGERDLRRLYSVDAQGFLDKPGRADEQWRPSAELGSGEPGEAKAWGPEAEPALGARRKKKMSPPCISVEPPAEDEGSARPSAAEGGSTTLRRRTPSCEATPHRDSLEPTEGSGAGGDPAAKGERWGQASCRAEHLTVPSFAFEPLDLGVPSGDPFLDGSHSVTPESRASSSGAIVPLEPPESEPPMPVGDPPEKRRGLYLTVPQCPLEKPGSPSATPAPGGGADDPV

The target of experiment [3] is human α1G T-type channels (Homo sapiens, UniProt O43497). Description: T-type calcium channel block, whole cell patch clamp, α1G. The settings on record: HEK cells stably expressing human α1G; mainly non-inactivated protocol; values above 10,000 nM represented as 10000. The method in brief: as §1
Chain of human α1G T-type channels (O43497 whole entry): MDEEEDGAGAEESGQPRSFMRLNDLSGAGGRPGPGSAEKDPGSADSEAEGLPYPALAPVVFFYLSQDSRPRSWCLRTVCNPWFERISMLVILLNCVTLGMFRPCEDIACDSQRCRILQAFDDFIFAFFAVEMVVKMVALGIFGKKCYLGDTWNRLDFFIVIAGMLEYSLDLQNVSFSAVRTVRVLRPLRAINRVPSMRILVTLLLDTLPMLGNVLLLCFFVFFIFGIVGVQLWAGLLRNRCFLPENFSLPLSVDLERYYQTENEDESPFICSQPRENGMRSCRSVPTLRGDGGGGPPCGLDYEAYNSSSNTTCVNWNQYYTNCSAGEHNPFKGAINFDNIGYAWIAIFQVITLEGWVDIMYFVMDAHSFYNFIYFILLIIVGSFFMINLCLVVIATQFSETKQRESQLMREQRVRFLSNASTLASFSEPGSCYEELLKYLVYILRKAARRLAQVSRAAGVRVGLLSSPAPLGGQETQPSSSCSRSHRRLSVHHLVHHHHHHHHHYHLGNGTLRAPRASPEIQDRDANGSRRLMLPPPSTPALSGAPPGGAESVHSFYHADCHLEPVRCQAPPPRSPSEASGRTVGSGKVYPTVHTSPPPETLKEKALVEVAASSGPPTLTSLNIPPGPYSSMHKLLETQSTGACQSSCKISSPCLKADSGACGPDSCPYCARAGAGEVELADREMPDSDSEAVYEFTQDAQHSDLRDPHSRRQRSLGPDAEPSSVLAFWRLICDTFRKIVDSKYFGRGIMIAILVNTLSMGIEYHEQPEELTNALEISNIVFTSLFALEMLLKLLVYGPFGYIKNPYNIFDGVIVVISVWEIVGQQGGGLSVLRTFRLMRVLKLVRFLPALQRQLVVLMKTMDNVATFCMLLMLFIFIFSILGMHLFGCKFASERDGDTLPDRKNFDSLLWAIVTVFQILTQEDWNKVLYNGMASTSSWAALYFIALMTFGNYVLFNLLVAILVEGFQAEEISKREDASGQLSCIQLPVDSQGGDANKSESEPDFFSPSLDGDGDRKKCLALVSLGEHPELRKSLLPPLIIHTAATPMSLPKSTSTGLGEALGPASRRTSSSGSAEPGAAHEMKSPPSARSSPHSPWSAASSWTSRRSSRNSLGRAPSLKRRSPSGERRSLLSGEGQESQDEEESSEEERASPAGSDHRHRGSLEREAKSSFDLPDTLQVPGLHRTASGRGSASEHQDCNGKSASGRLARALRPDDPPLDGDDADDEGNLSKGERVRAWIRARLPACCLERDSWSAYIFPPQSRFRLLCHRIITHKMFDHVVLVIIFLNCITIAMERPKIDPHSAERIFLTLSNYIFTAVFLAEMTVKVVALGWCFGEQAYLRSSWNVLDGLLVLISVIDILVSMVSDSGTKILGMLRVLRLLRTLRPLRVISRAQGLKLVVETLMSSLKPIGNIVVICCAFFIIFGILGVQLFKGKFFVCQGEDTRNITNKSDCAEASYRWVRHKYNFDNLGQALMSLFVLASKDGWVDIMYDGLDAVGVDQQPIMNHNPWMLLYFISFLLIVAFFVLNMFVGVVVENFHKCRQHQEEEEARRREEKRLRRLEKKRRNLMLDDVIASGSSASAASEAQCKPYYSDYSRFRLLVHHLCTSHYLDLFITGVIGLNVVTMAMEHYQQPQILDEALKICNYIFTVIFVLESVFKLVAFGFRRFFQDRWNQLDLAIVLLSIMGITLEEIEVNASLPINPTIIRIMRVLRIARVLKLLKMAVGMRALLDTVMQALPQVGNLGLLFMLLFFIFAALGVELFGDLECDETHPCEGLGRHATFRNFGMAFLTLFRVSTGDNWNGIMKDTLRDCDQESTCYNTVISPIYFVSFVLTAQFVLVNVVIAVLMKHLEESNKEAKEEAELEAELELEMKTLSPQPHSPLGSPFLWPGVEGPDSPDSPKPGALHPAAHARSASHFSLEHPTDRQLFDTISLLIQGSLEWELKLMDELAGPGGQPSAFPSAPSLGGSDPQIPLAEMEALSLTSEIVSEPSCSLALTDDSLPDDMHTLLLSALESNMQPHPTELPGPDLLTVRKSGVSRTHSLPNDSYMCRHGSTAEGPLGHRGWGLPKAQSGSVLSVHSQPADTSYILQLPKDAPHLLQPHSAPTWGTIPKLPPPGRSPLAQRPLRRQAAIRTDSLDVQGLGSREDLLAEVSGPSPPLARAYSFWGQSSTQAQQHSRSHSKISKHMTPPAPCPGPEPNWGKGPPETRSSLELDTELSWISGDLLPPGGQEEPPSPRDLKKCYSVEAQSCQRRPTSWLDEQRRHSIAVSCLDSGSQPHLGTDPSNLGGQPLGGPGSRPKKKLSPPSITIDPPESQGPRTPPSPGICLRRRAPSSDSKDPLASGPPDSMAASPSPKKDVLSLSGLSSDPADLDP
Background: In patch-clamp work, channel activity is measured electrically.

For the compound `CCN(CC)C(=O)CN[C@H]1CC[C@H](CS(=O)(=O)c2cccc(C(F)(F)F)c2)CC1` [Compound 116, N,N-diethyl-2-((1R,4R)-4-((3-(trifluoromethyl)phenylsulfonyl)methyl)cyclohexylamino)acetamide], the IC50 – broadly, the concentration that gives 50% inhibition – was determined as 2090 nM in experiment [1], 4240 nM in experiment [2] and 8320 nM in experiment [3].
On the same counts, the results for `O=C(CN[C@H]1CC[C@H](CS(=O)(=O)c2cccc(C(F)(F)F)c2)CC1)NC1CCCCC1` [Compound 118, N-cyclohexyl-2-((1R,4R)-4-((3-(trifluoromethyl)phenylsulfonyl)methyl)cyclohexylamino)acetamide] are 790 nM, more than 10000 nM and more than 10000 nM.
On the same counts, the results for `O=C(N[C@H]1CC[C@H](S(=O)(=O)c2cccc(C(F)(F)F)c2)CC1)c1ccc(Cl)c(C(F)(F)F)c1` [Compound 125, 4-chloro-3-(trifluoromethyl)-N-((1R,4R)-4-(3-(trifluoromethyl)phenylsulfonyl)cyclohexyl)benzamide] are 900 nM, 2970 nM and 2910 nM.
Regarding `COc1cc(Cl)ccc1C(=O)N[C@H]1CC[C@H](S(=O)(=O)c2cccc(C(F)(F)F)c2)CC1` [Compound 127, 4-chloro-2-methoxy-N-((1R,4R)-4-(3-(trifluoromethyl)phenylsulfonyl)cyclohexyl)benzamide], the IC50 was 1290 nM in experiment [1], 1560 nM in experiment [2] and 1140 nM in experiment [3].
For the compound `O=C(N[C@H]1CC[C@@H](S(=O)(=O)c2cccc(C(F)(F)F)c2)CC1)c1ccc(Cl)c(F)c1` [Compound 130, 4-chloro-3-fluoro-N-((1S,4S)-4-(3-(trifluoromethyl)phenylsulfonyl)cyclohexyl)benzamide], the IC50 in experiment [1] came to 290 nM; in experiment [2] it was 940 nM; in experiment [3] it was 430 nM.
On the same counts, the results for `O=C(N[C@H]1CC[C@@H](S(=O)(=O)c2cccc(C(F)(F)F)c2)CC1)c1ccc(F)c(Cl)c1` [Compound 131, 3-chloro-4-fluoro-N-((1S,4S)-4-(3-(trifluoromethyl)phenylsulfonyl)cyclohexyl)benzamide] are 160 nM, 610 nM and 160 nM.
On the same counts, the results for `O=C(N[C@H]1CC[C@@H](S(=O)(=O)c2cccc(C(F)(F)F)c2)CC1)c1ccc(Cl)c(C(F)(F)F)c1` [Compound 132, 4-chloro-3-(trifluoromethyl)-N-((1S,4S)-4-(3-(trifluoromethyl)phenylsulfonyl)cyclohexyl)benzamide] are 1720 nM, 4550 nM and 3670 nM.
Taken in the same sequence, the figures for `O=C(N[C@H]1CC[C@@H](S(=O)(=O)c2cccc(C(F)(F)F)c2)CC1)c1ccc(Cl)c(OC(F)(F)F)c1` [Compound 133, 4-chloro-3-(trifluoromethoxy)-N-((1S,4S)-4-(3-(trifluoromethyl)phenylsulfonyl)cyclohexyl)benzamide] were 210 nM, 400 nM and 350 nM.
Take `COc1cc(Cl)ccc1C(=O)N[C@H]1CC[C@@H](S(=O)(=O)c2cccc(C(F)(F)F)c2)CC1` [Compound 134, 4-chloro-2-methoxy-N-((1S,4S)-4-(3-(trifluoromethyl)phenylsulfonyl)cyclohexyl)benzamide]: the IC50 in experiment [1] stood at 500 nM; in experiment [2] it was 1820 nM; in experiment [3], 2630 nM.
Taken in the same sequence, the figures for `CC1(CNC(=O)c2ccc(F)c(C(F)(F)F)c2)CCC(S(=O)(=O)c2cccc(C(F)(F)F)c2)CC1` (stereo not drawn) [Compound 135, 4-fluoro-N-((1-methyl-4-(3-(trifluoromethyl)phenylsulfonyl)cyclohexyl)methyl)-3-(trifluoromethyl)benzamide] were 100 nM, 760 nM and 780 nM.
